According to patent publication US5079257A, “Indoloquinone compounds” (priority 1986, dated 1992):
≈ marks a conversion by molar mass, not a printed value. Where two headings read alike, the source gives them in different places.

Experiments:
[1] = test system: R-1 cells (Rhabdomyosarcoma Cells); assay: R-1 activity (bioliquid assay), cytotoxicity; format: cell-based; details: Rhabdomyosarcoma cell
Description: The indoloquinones II (formula II) have been tested in respect of their cytotoxic activity against L1210 cells and R-1 cells (Rhabdomyosarcoma Cells) in a bioliquid assay at the department of oncology of the Free University of Amsterdam (Table I). […] (Table II). Eight indoloquinones (E.O. 1, E.O. 2, E.O. 4, E.O. 4A, E.O. 8, E.O. 9, E.O. 33 and E.O. 35) have been tested in a panel of five human tumour lines (TNO Rijswijk; Table III).
For the determination of the R-1 activity, Rhabdomyosarcoma cells were brought into Falcon multiwells (growth area: 9.6 cm^2) (~10^6 cells per dish) containing 3 ml of Dulbecco's medium supplemented with 10% Foeto Calf Serum (FCS). […] Thereupon the drug solution was removed and the cells were covered with fresh medium. After 48 hours the cells were trypsinized and counted on a Sysmex microcell counter (CC110).
(§1) The in vitro L1210 and R-1 activities of the indoloquinones (formula III), were also determined in the bioliquid assays as described above.

L1210 cells = assay: L1210 activity (bioliquid assay), cytotoxicity; format: cell-based; details: Mus musculus, L1210, 48 h
Description: The indoloquinones II (formula II) have been tested in respect of their cytotoxic activity against L1210 cells and R-1 cells (Rhabdomyosarcoma Cells) in a bioliquid assay at the department of oncology of the Free University of Amsterdam (Table I). In addition to this seven compounds (E.O. 1, E.O. 2, E.O. 4, E.O. 7, E.O. 9, E.O. 16 and E.O. 17) have been tested on L1210 activity in a clonogenic assay at TNO, Rijswijk. Further, the lowest active doses of the compounds E.O. 1, E.O. 2, E.O. 4 and E.O. 9 have been determined at TNO Rijswijk, according to the method described by Lamberts et al. [Oncology, 40, 301 (1983)]. (Table II). Eight indoloquinones (E.O. 1, E.O. 2, E.O. 4, E.O. 4A, E.O. 8, E.O. 9, E.O. 33 and E.O. 35) have been tested in a panel of five human tumour lines (TNO Rijswijk; Table III). From the latter group three indoloquinones (E.O. 1, E.O. 4 and E.O. 9) have been selected for a cytotoxicity study, involving five slowly growing human tumour lines (University of Freiburg; Table IV).
For this purpose, L1210 cells were grown, as suspension, in Falcon multi-wells (growth area: 9.6 cm^2) using RPMI supplemented with 15% FCS and 2-mercapto-ethanol (60 μmol) as medium. In this medium, the cells were continuously incubated with the compound to be tested at 37° C. in an atmosphere of 5% CO2 in humidified air for 48 hours. Thereupon they were counted on a Sysmex microcell counter (CC110).
as §1

[2] = test system: A 204 cells; rhabdomyosarcoma; assay: In vitro panel of human tumour lines (TNO): A 204; format: cell-based; details: about 72 hours; also: key: -: no inhibition of cell growth; +: total cell-kill
Protocol: (§2) Compounds E.O. 1, E.O. 2, E.O. 4, E.O. 4A, E.O. 8, E.O. 9, […], E.O. 33, and E.O. 35 were tested for their activity against five human tumour cell lines at the Radiobiological Institute TNO Rijswijk.
(§3) The new in vitro prescreen uses human tumour clones; it was set up by Dr. P. Lelieveld at TNO Rijswijk and comprises testing compounds in a bioliquid assay for their cytostatic activity against the following five human tumour lines:
(§4) After a continuous exposure to the drugs to be tested and to Adriamycin in `24 well tissue culture clusters, type 3524 (Costar)`, the remaining cells are fixed and stained. Using increasing drug concentrations the inhibiting concentration can be estimated qualitatively.
(§5) Cells: the human tumour cells are maintained in Dulbecco's medium supplemented with 10 percent foetal calf serum.
(§6) A, T and Z cell suspensions: 5·10^4 cells/ml
(§7) The cells were grafted into 16 mm wells for 48 hours (0.5 ml cell suspension per well was used).
(§8) Drugs: the compound to be tested was dissolved in appropriate concentrations in a mixture of Hepes-buffered Hanks' balanced salt solution and ethanol. The drug solutions (0.05 ml) were added to the different wells. The final ethanol concentration in each well was less than one percent.
(§9) The cells were continuously incubated with the compound under test at 37° in an atmosphere of 10 percent CO2 in humidified air for about 72 hours.
(§10) Determination of the inhibiting dose: the cells were fixed and stained with a solution of crystal violet in methanol/formaldehyde.

MCF7 breast cancer cells = assay: In vitro panel of human tumour lines (TNO): MCF-7; format: cell-based; details: about 72 hours; also: key: -: no inhibition of cell growth; +: total cell-kill
Protocol: as §2, §3, §4, §5
(§11) M and W cell suspensions: 10^5 cells/ml.
as §7, §8, §9, §10

[3] = test system: T 24 cells; bladder carcinoma; assay: In vitro panel of human tumour lines (TNO): T 24; format: cell-based; details: about 72 hours; also: key: -: no inhibition of cell growth; +: total cell-kill
Protocol: as §2, §3, §4, §5, §6, §7, §8, §9, §10

WiDr cells; colon tumour = assay: In vitro panel of human tumour lines (TNO): WiDr; format: cell-based; details: about 72 hours; also: key: -: no inhibition of cell growth; +: total cell-kill
Protocol: as §2, §3, §4, §5, §11, §7, §8, §9, §10

IgR37 cells melanoma = assay: In vitro panel of human tumour lines (TNO): IgR-37; format: cell-based; details: about 72 hours; also: key: -: no inhibition of cell growth; +: total cell-kill
Protocol: as §2, §3, §4, §5, §6, §7, §8, §9, §10

[4] = Half-wave reduction potentials / polarography (University of Utrecht); format: physicochemical
Description: *The halve wave reduction potentials (E1/2) have been determined at the
Pharmaceutical Laboratory of University of Utrecht. Only the first
(quinone) reduction potential has been given.
Additional evidence for the occurrence of a bioreductive activation mechanism during the cytotoxic action of indoloquinones (II) was obtained via electrochemical studies, which have been carried out at the Pharmaceutical Laboratory of the University of Utrecht. […]

P 388 tumour cells = assay: In vivo P388 experiments (Brussels); design: species or system mice
Protocol: These experiments were carried out at the Institute Jules Bordet, Brussels, on CDF, female mice. The mice were inoculated intraperitoneally (IP) with 1×10^6 P 388 tumour cells. After 24 hours, the compounds were administrated as suspensions in "Tween-80" or using saline as vehicle. Six mice were used at each dose of the compound, given on days 1 to 5 and eighteen control mice were injected with saline.

Ovarian (MRI-H-207) line = format: in vivo, human; details: 150 mg/kg
Description: The xenograft experiments have been carried by Dr. H. H. Fiebig of the University of Freiburg [Lung-NSCLC (LXGF) line, Renal line, Breast line; See: H. H. Fiebig et al., Behring Inst. Mitt., 74 343] and by Dr. E. Boven of the Free University Hospital Amsterdam [Ovarian (MRI-H-207) line; See: E. Boven et al., Cancer Res., 45, 86 (1985) and E. Boven et al., Eur. J. Clin. Oncol., 21, 1253 (1985)].
Mice: C57B1 athymic (nu/nu) female mice, 8 to 10 weeks of age were used for s.c. bilateral implantation of tumour fragments 2 mm diameter.
Treatment: E.O. 9 was dissolved in saline at a concentration of 0.5 mg/ml prior to administration. Drug doses and schedules were derived from studies in experimental murine tumour systems and from orientation studies in non-tumour-bearing nude mice. Treatment was started i.v. when tumours measured 50-150 mm^3. After randomization a group of 6-7 tumour-bearing mice was treated and a group of 5-6 tumour-bearing mice served as control.
Evaluation of efficacy: Tumours were measured twice weekly in three dimensions. Efficacy was expressed as the mean of relative tumour volume in treated animals vs. that in control animals×100 (% T/C). The optimal value was calculated within 35 days after the last injection. Toxic death (dead mice within two weeks after the last injection) were excluded from the evaluation.
MRI-H-207: An undifferentiated adenocarcinoma kindly provided by Dr. A. E. Bogden, Worcester, Mass, with a doubling time of 3-5 days.

[5] = read-out: ID-50 R-1, Table VIII
[6] = read-out: ID-50 L1210, Table VIII

Structure (SMILES) | IC50 [1, 5] | IC50 (L1210 cells; [6]) | in vitro activity score, A 204 ([2]; 0.01 μg/ml) | in vitro activity score, A 204 ([2]; 0.1 μg/ml) | in vitro activity score, A 204 ([2]; 1.0 μg/ml) | in vitro activity score, MCF-7 (MCF7 breast cancer cells; 0.01 μg/ml) | in vitro activity score, MCF-7 (MCF7 breast cancer cells; 0.1 μg/ml) | in vitro activity score, MCF-7 (MCF7 breast cancer cells; 1.0 μg/ml) | in vitro activity score, MCF-7 (MCF7 breast cancer cells; 10 μg/ml) | in vitro activity score, T 24 ([3]; 0.01 μg/ml) | in vitro activity score, T 24 ([3]; 0.1 μg/ml) | in vitro activity score, T 24 ([3]; 1.0 μg/ml) | in vitro activity score, WiDr (WiDr cells; colon tumour; 0.01 μg/ml) | in vitro activity score, WiDr (WiDr cells; colon tumour; 0.1 μg/ml) | in vitro activity score, WiDr (WiDr cells; colon tumour; 1.0 μg/ml) | in vitro activity score, IgR-37 (IgR37 cells melanoma; 0.01 μg/ml) | in vitro activity score, IgR-37 (IgR37 cells melanoma; 0.1 μg/ml) | in vitro activity score, IgR-37 (IgR37 cells melanoma; 10 μg/ml) | also measured
CC1CN1C1=CC(=O)c2c(c(CO)c(/C=C/CO)n2C)C1=O (stereo not drawn) [E.O. 8, 3-Hydroxymethyl-1-methyl-5-propyleneamino-2-[1H-indole-4,7-dione]prop-β-en-α-ol] | 7.6 µg/mL (≈ 25.1 µM) | 0.48 µg/mL (≈ 1.59 µM) | - | - | - | - | - | - | - | - | - | - | - | - | - | - | - | + | IC50 (L1210 cells; read-out: ID-50 L1210, Table I, bioliquid assay, 48 hours): 0.5 µg/mL (≈ 1.65 µM); in vitro activity score, IgR-37 (IgR37 cells melanoma; 1.0 μg/ml): -; half-wave potential E1.2, wave I ([4]; pH = 8 vs Ag/AgCl): -380 mV; half-wave potential E1.2, wave II ([4]; pH = 8 vs Ag/AgCl): -780 mV
CC(=O)OC/C=C/c1c(COC(C)=O)c2c(n1C)C(=O)C(C)=C(N1CC1)C2=O [E.O. 35, 3-Acetoxymethyl-5-aziridino-1,6-dimethyl-2-[1H-indole-4,7-dione]prop-β-en-αyl acetate] | 0.32 µg/mL | 0.55 µg/mL | - | - | - | - | - | - |  | - | - | - | - | - | - | - | - | + | IC50 ([1]; read-out: ID-50 R-1, Table I, bioliquid assay): 0.3 µg/mL; MAX T/C (P 388 tumour cells; 400 mg/kg, days 1 to 5): 131%; T/C at the optimal dose (P 388 tumour cells; optimal dose): ~130%
COC(=O)/C=C/c1c(C(=O)OC)c2c(n1C)C(=O)C=C(N1CCOCC1)C2=O [E.O. 55, Methyl 3-methoxycarbonyl-1-methyl-5-morpholino-2-[1H-indole-4,7-dione]acrylate] |  |  |  |  |  |  |  |  |  |  |  |  |  |  |  |  |  |  | IC50 ([1]; Table IA, para-indoloquinone diesters, read-out: ID-50 R-1): 8.9 µg/mL (≈ 22.9 µM); IC50 (L1210 cells; Table IA, para-indoloquinone diesters, read-out: ID-50 L1210): 1.4 µg/mL (≈ 3.6 µM); E1/2, halve wave reduction potential ([4]; Table IA, only the first (quinone) reduction potential): -240 mV
CN(C)c1nc(N(C)C)nc(N(C)C)n1 [HMM] |  |  |  |  |  |  |  |  |  |  |  |  |  |  |  |  |  |  | toxic deaths (Ovarian (MRI-H-207) line; days of treatment 0,2,4,6): 1/6
CN(Cc1cnc2nc(N)nc(N)c2n1)c1ccc(C(=O)N[C@@H](CCC(=O)O)C(=O)O)cc1 [Methotrex., reference compound] |  |  |  | + | + | - | - | - | - |  |  |  | - |  |  | - |  |  | in vitro activity score, A 204 ([2]; 10 μg/ml): +; T/C % (Ovarian (MRI-H-207) line; days of treatment 0,9,16): 47%; toxic deaths (Ovarian (MRI-H-207) line; days of treatment 0,9,16): 2/7
